{"source": "patent US20020182207A1", "about": "“Methods and compositions for modifying biologically active target molecules” (priority 2000, published 2002)", "key": {"[1]": {"assay": "Pseudo-first order NaOH hydrolysis rates by UV spectrometry", "assay_type": "physicochemical", "conditions": "1.0 mM antibiotic, 10.0 mM NaOH, 30.0° C.", "description": "Further, before choosing either cefoxitin or cefotaxime as the labeling reactant, it was verified that their uncatalyzed reactivity rates were as facile as that of ampicillin. Model reactions were performed comparing the (NaOH) hydrolysis rates of cefoxitin, cefotaxime, and ampicillin. Hydrolysis and acylation are mechanistically identical. Their pseudo-first order hydrolysis rates as measured by UV spectrometry (1.0 mM antibiotic, 10.0 mM NaOH, 30.0° C.) were virtually the same: […]"}, "[2]": {"test_system": "β-lactamase-producing E. coli (TG1 phage antibody E. coli)", "assay": "Growth of β-lactamase-producing E. coli on agar plates containing antibiotics", "assay_type": "cell-based", "set-up": "E. coli growth score on agar plate: key to the marks not given beside the values", "conditions": "for Concentration toxic to β-lactamase-expressing E. coli / Concentration toxic to β-lactamase-expressing E. coli (toxic level): agar plates; for Concentration toxic to β-lactamase-expressing E. coli (toxic level): called IC50 in b119 and b167; for Antibiotic effect on β-lactamase-producing E. coli (in words): at the indicated concentrations of Table 2", "description": "First, the ability of these candidate cephalosporins to kill the relevant β-lactamase-producing E. coli (TG1 phage antibody E. coli) was tested. […] This is presumably due to β-lactamase-catalyzed inactivation. […] Presumably, neither is inactivated by E. coli β-lactamase. […] More preferably, E. coli should be challenged with approximately 40-45 μM cefoxitin and 0.45-0.50 μM cefotaxime.\nNext, the ability of the cephalosporins to kill the relevant β-lactamase-producing E. coli (TG1 phage antibody E. coli) was tested by growing the bacteria on agar plates containing the antibiotics. […] This is presumably due to β-lactamase-catalyzed inactivation. […] Presumably, neither is inactivated by E. coli β-lactamase.\nA second experiment was performed in which E. coli was grown on agar plates containing varying amounts of cefotaxime."}, "TNFα": {"target": "TNFα (Homo sapiens, UniProt P01375)", "sequence (P01375 77-233 limits assumed)": "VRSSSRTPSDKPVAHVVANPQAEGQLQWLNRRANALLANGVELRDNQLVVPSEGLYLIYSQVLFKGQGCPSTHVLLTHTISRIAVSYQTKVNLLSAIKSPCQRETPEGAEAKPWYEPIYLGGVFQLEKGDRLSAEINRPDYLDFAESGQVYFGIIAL", "assay": "ECL-based assay of TNFα binding to its receptor after incubation with label (sugars, ampicillin)", "description": "Experiments were conducted to determine whether catalytic antibodies can chemically modify and thereby inactivate disease-associated proteins. First, the reaction of reducing sugars with the disease-associated protein, tumor necrosis factor alpha (TNFα) was examined. In this reaction, the reducing sugar aldehyde covalently reacts with protein lysine sidechains. Chemical modification was detected using an ECL-based binding assay that measures the binding of TNFα to its receptor (an assay of biological function). […] Thus, chemical modification is a viable approach to inactivate proteins. Experiments were conducted to determine whether catalytic antibodies can inactivate disease-associated proteins. First, the reaction of reducing sugars with the disease-associated protein, tumor necrosis factor alpha (TNFα) was examined. In this reaction, the reducing sugar aldehyde covalently reacts with protein lysine sidechains. Chemical modification was detected using an ECL-based immunoassay that measures the binding of TNFα to its receptor. The assay is a sandwich format that uses antibodies directed against TNF and its receptor. One antibody is labeled with biotin, the other with an ECL label (TAG NHS Ester, IGEN International). When the TNF-TNF receptor complex is present, a sandwich complex comprising both a biotin and an ECL label is formed. This sandwich complex is captured on streptavidin-coated magnetic beads and measured using ECL detection. Alternatively, the TNF receptor may be directly biotinylated and the TNF target molecule labeled directly with the ECL label (or visa versa); in this alternative approach, no antibodies are necessary. […] Thus, chemical modification may be used to inactivate proteins. The uncatalyzed reaction between a β-lactam (ampicillin) and two proteins was also examined. Bovine serum albumin (BSA) and ampicillin were reacted overnight. […] Ampicillin was also reacted with TNFα overnight. […] Thus, this reaction is much more facile than the reaction of TNFα with reducing sugars."}, "[3]": {"conditions": "first column, head printed 10 g/mL"}, "[4]": {"conditions": "second column, head printed 10 g/mL"}}, "data": [{"smiles": "CO/N=C(\\C(=O)N[C@@H]1C(=O)N2C(C(=O)O)=C(COC(C)=O)CS[C@H]12)c1csc(N)n1", "note": "[Cefotaxime]", "values": [{"measurement": "Pseudo-first order hydrolysis rate", "setting": "[1]", "value": 0.0041, "unit": "min⁻¹"}, {"measurement": "Concentration toxic to β-lactamase-expressing E. coli", "setting": "[2]", "value": "~0.25", "unit": "µM"}, {"measurement": "Concentration toxic to β-lactamase-expressing E. coli (toxic level)", "setting": "[2]", "value": "~0.12", "unit": "µg/mL"}, {"measurement": "Antibiotic effect on β-lactamase-producing E. coli (in words)", "setting": "[2]", "value": "excellent antibiotic effects"}, {"measurement": "# of E. coli colonies", "setting": "[2]; cefotaxime concentration 0.04 μg/mL", "value": 225}, {"measurement": "# of E. coli colonies", "setting": "[2]; cefotaxime concentration 0.12 μg/mL", "value": 5}, {"measurement": "# of E. coli colonies", "setting": "[2]; cefotaxime concentration 0.37 μg/mL", "value": 0}, {"measurement": "# of E. coli colonies", "setting": "[2]; cefotaxime concentration 1.11 μg/mL", "value": 0}]}, {"smiles": "CO[C@@]1(NC(=O)Cc2cccs2)C(=O)N2C(C(=O)O)=C(COC(N)=O)CS[C@@H]21", "note": "[Cefoxitin]", "values": [{"measurement": "Pseudo-first order hydrolysis rate", "setting": "[1]", "value": 0.00438, "unit": "min⁻¹"}, {"measurement": "Concentration toxic to β-lactamase-expressing E. coli", "setting": "[2]", "value": "~22", "unit": "µM"}, {"measurement": "Concentration toxic to β-lactamase-expressing E. coli (toxic level)", "setting": "[2]", "value": "approximately 10 μg/mL"}, {"measurement": "Antibiotic effect on β-lactamase-producing E. coli (in words)", "setting": "[2]", "value": "excellent antibiotic effects"}, {"measurement": "Number of E. coli colonies on agar plate", "setting": "[2]; [3]", "value": 30, "unit": "colonies"}]}, {"smiles": "CC1(C)S[C@@H]2[C@H](NC(=O)[C@H](N)c3ccccc3)C(=O)N2[C@H]1C(=O)O", "note": "[Ampicillin]", "values": [{"measurement": "Pseudo-first order hydrolysis rate", "setting": "[1]", "value": 0.00564, "unit": "min⁻¹"}, {"measurement": "Loss of TNFα biological activity according to the receptor binding assay", "setting": "TNFα; reacted with TNFα overnight, uncatalyzed", "value": 16, "unit": "%"}, {"measurement": "Antibiotic effect on β-lactamase-producing E. coli (in words)", "setting": "[2]", "value": "little or no antibiotic effect"}, {"measurement": "E. coli growth score on agar plate", "setting": "[2]; [3]", "value": "+++++"}, {"measurement": "E. coli growth score on agar plate", "setting": "[2]; [4]", "value": "+++++"}]}, {"smiles": "CC(=O)OCC1=C(C(=O)O)N2C(=O)[C@@H](NC(=O)Cc3cccs3)[C@H]2SC1", "note": "[Cephalothin]", "values": [{"measurement": "Antibiotic effect on β-lactamase-producing E. coli (in words)", "setting": "[2]", "value": "little or no antibiotic effect"}, {"measurement": "E. coli growth score on agar plate", "setting": "[2]; [3]", "value": "+++++"}, {"measurement": "E. coli growth score on agar plate", "setting": "[2]; [4]", "value": "+++++"}]}, {"smiles": "O=C(CO)[C@@H](O)[C@H](O)[C@H](O)CO", "note": "[Fructose]", "values": [{"measurement": "TNFα receptor binding following incubation with sugar (control buffer = 1.00, arbitrary)", "setting": "TNFα; incubation time: 7 days", "value": 0.79}, {"measurement": "TNFα receptor binding following incubation with sugar (control buffer = 1.00, arbitrary)", "setting": "TNFα; incubation time: 14 days", "value": 0.67}, {"measurement": "TNFα receptor binding following incubation with sugar (control buffer = 1.00, arbitrary)", "setting": "TNFα; incubation time: None", "value": 1.02}]}, {"smiles": "N[C@@H](C(=O)N[C@@H]1C(=O)N2C(C(=O)O)=C(Cl)CS[C@H]12)c1ccccc1", "note": "[Cefaclor]", "values": [{"measurement": "Antibiotic effect on β-lactamase-producing E. coli (in words)", "setting": "[2]", "value": "little or no antibiotic effect"}, {"measurement": "E. coli growth score on agar plate", "setting": "[2]; [3]", "value": "+++++"}]}, {"smiles": "OC[C@H]1O[C@@](CO)(O[C@H]2O[C@H](CO)[C@@H](O)[C@H](O)[C@H]2O)[C@@H](O)[C@@H]1O", "note": "[sucrose]", "values": [{"measurement": "Inactivation of TNFα receptor binding (in words)", "setting": "TNFα; 2-week incubation period", "value": "did not inactivate TNFα"}]}, {"smiles": "O=C[C@H](O)[C@@H](O)[C@@H](O)[C@H](O)CO", "note": "[Galactose]", "values": [{"measurement": "TNFα receptor binding following incubation with sugar (control buffer = 1.00, arbitrary)", "setting": "TNFα; incubation time: 7 days", "value": 0.89}, {"measurement": "TNFα receptor binding following incubation with sugar (control buffer = 1.00, arbitrary)", "setting": "TNFα; incubation time: 14 days", "value": 0.82}, {"measurement": "TNFα receptor binding following incubation with sugar (control buffer = 1.00, arbitrary)", "setting": "TNFα; incubation time: None", "value": 1.00}]}]}
